According to patent publication US9757350B2, “Small molecule inhibitors of replication protein A that also act synergistically with cisplatin” (Indiana University Research and Technology Corp., priority 2010, dated 2017):
“Also recorded” adds a separate entry of the source.

Tests used:
[1] = biological target: T1, EcSSB (Escherichia coli, UniProt P0AGE0); experiment: E. coli SSB DNA-binding EMSA; conditions: 0-200 μM, pre-incubated with protein
T1 construct: purchased Enzymatics, Beverly, Mass
Method: In order to study the specificity of the CheSS19, and MCI13E/F compounds, their effects on two ssDNA binding proteins which use OB-folds for recognition and binding of ssDNA, E. coli SSB (6) and the Schizosaccharomyces pombe Pot1(DBD) domain (11) were studied. The EcSSB protein is a non-sequence-specific ssDNA binding protein, whereas the SpPot1(DBD) protein is a telomere-specific, ssDNA binding protein. In these experiments, protein was pre-incubated with the SMIs, as was done for the RPA experiments, prior to addition of radiolabeled ssDNA to the reactions.
Referring now to FIG. 6B. CheSS19 titration in EcSSB DNA-binding reactions. CheSS19 (0, 25, 50, 100, and 200 μM) was pre-incubated with EcSSB and binding reactions were carried out. Referring now to FIG. 6C. Titration of MCI13E and MCI13F in EcSSB DNA-binding reactions. Concentrations of MCI13E/F used were: 0, 25, 50, 100, and 200 μM. In all panels, the ‘Free’ ssDNA is indicated with an arrow and the ‘Bound’ ssDNA is indicated by brackets. All reactions were performed in the same order and manner as the RPA binding reactions. EcSSB binding was unaffected by CheSS19 and the MCI13E and MCI13F compounds […].
EMSAs were performed similarly to those for the RPA constructs, with the following exceptions. Reactions contained 25 nM of 5′-[^32P]-labeled 3Pc3 ssDNA and 3.3 nM (assuming homotetramer formation) SSB protein (Enzymatics, Beverly, Mass.). Reactions (20 μL) were carried out in 20 mM HEPES, pH 7.5, 1 mM DTT, 0.01% NP-40, 100 mM NaCl, and resolved by 6% native polyacrylamide gel electrophoresis at 25 mA for 2 hours. Gels were dried and quantified via phosphorimager analysis and ImageQuant software (Molecular Dynamics).

[2] = biological target: T2, RPA DBD-A/B (Homo sapiens, UniProt P27694); experiment: EMSA DNA binding assay, RPA DBD-A/B construct
T2 construct: made in house; host or cells: E. coli BL21(DE3)
T2 sequence (P27694 181-422 limits assumed): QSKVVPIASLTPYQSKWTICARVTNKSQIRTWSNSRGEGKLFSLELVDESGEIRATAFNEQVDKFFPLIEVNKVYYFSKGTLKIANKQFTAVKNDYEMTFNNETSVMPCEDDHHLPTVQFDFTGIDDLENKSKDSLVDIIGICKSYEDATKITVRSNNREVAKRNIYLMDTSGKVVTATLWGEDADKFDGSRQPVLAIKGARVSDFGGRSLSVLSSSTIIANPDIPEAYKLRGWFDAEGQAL
Method: DBD-A/B. The sequence encoding the RPA p70 DNA binding domains A and B were subcloned from the hrRPA plasmid (provided by Dr. Marc Wold, University of Iowa) into the pET15b (Novagen) vector and the protein was expressed in BL21(DE3) cells (Stratagene) as previously described. Briefly, cells were grown to an OD600 of 0.8, induced with 0.5 mM isopropyl-1-thio-β-D-galactopyranoside (IPTG) at 37° C. for 2-3 hours. Small scale DBD-A/B preparations were obtained from 1 L cultures and following induction, cells were harvested by centrifugation at 700×g for 30 minutes at 4° C. The pellets were suspended in Buffer A (20 mM Tris, pH 7.5, 10% glycerol, 500 mM NaCl, 10 mM β-mercaptoethanol (BME) and 1 μg/mL phenylmethanesulfonylfluoride (PMSF), leupeptin and pepstatin) at 1 mL/gram of cells. The cells were lysed by sonication and insoluble material sedimented at 15,000×g for 30 minutes at 4° C. The supernatant was then loaded onto a 10 mL phosphocellulose column, equilibrated with Buffer A, and the flow-through material collected. Imidazole was added to 5 mM to the flow through which was then loaded onto a 2 mL nickel-NTA-agarose column. The column was then washed with Buffer A containing 50 mM imidazole after which protein was eluted from the column using a gradient from 50-500 mM imidazole. Fractions were analyzed for protein content using Bradford and SDS-PAGE analysis in addition to assessment of DNA binding activity as determined by anisotropy. Fractions containing the DBD-A/B protein were pooled and dialyzed overnight in Buffer B (1 mM HEPES, pH 7.2, 10 mM dithiothreitol (DTT), 50 mM NaCl and 1 μg/mL PMSF, pepstatin and leupeptin) and aliquots stored at −80° C.
RPA and DBD-A/B Binding. EMSAs were performed as previously described (22) using a 30-base purine rich ssDNA substrate (3Pc3). […] Gels were dried and quantified via phosphorimager analysis and ImageQuant software (Molecular Dynamics).

[3] = biological target: T3, full-length heterotrimeric RPA (Homo sapiens, UniProt P27694); conditions: reference 9; cited from earlier work
T3 construct: Human full-length, un-tagged heterotrimeric RPA (RPA) was purified as previously describe; made in house
T3 sequence (P27694 whole entry): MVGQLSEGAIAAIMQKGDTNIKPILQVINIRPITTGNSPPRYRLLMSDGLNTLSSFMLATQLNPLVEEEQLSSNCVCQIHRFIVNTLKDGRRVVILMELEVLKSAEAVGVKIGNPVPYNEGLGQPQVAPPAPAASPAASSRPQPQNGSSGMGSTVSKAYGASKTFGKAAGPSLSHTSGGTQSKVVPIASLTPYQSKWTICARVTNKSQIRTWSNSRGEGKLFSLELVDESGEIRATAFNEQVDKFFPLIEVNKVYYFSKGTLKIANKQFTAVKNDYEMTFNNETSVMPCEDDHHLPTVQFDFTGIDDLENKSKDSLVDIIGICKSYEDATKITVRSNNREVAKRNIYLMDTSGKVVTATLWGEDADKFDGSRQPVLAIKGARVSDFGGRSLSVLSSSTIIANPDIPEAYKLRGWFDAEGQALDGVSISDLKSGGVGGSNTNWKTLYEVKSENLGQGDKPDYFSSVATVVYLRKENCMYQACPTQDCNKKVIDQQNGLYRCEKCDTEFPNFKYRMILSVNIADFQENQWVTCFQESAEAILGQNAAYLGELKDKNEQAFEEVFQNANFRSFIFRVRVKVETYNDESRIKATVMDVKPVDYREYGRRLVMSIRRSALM
T3 sequence (P15927 whole entry partner): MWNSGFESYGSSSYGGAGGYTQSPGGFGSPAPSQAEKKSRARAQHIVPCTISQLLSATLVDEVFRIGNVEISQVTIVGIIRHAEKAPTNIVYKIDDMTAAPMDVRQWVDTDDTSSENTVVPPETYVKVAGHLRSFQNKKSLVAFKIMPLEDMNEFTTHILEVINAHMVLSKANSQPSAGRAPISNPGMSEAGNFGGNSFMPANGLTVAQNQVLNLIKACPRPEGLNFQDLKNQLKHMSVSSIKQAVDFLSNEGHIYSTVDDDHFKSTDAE
T3 sequence (P35244 whole entry partner): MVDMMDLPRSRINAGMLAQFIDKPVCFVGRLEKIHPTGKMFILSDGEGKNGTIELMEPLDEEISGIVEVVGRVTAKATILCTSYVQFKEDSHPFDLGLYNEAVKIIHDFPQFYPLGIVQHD

[4] = biological target: T2, RPA DBD-A/B; experiment: Reversibility of DBD-A/B inhibition: dialysis, then fluorescence polarization; type: binding; conditions: overnight dialysis, then FP with F-dT12
Method: In an experiment reported herein, DBD-A/B was incubated with CheSS19 and then the reaction mix dialyzed overnight to remove dissociable inhibitor. […] Referring now to FIG. 3D. Bar graph showing results of fluorescence polarization analysis of CheSS19 inactivated RPA DBD-A/B. Referring now to FIG. 3D, RPA DBD-A/B was pre-incubated with vehicle (1% DMSO) or CheSS19 (1 pmol in 1% DMSO) for 30 minutes at 37° C. Following incubation, the reaction mix was dialyzed versus H1 buffer overnight at 4° C. The protein was recovered and DNA binding activity measured by FP analysis of binding to an F-dT12 substrate was performed as described in “Methods”. Bar 1, DNA control, Bar 2, control vehicle treated DBD-A/B, Bar 3, Chess19 treated DBD-A/B. The data represent the mean and range of two independent experiments.
Fluorescence polarization experiments were preformed as previously described (21). SMIs were diluted in H1 buffer (10 mM HEPES, pH 7.2, 1 mM DTT, 0.01% NP-40 and 100 mM NaCl) and the final DMSO concentration was kept below 1%.
In order to assess the reversibility of select SMIs, the indicated SMI was pre-incubated with RPA or the DBD-A/B construct for 30 minutes at room temperature. […] The resulting protein was recovered and concentration determined by Bradford analysis. […]

[5] = biological target: T3, full-length heterotrimeric RPA; experiment: EMSA in vitro DNA binding assay, full-length heterotrimeric RPA; conditions: ssDNA substrate
Method: RPA. Human full-length, un-tagged heterotrimeric RPA (RPA) was purified as previously describe.
RPA and DBD-A/B Binding. EMSAs were performed as previously described (22) using a 30-base purine rich ssDNA substrate (3Pc3). Briefly, reactions contained 12.5 nM 5′-[^32P]-labeled 3Pc3 ssDNA and the indicated concentrations of RPA or DBD-A/B. Protein was pre-incubated with the indicated concentration of SMI for 30 minutes at 37° C. DNA was then added and reactions incubated for an additional 5 minutes at room temperature in a final reaction volume of 40 μL. Reactions were then resolved on a 6% native polyacrylamide gel and electrophoresed at 170 volts for 1 hour. Gels were dried and quantified via phosphorimager analysis and ImageQuant software (Molecular Dynamics).

[6] = test system: NSCLC cell lines A549 and H460; conditions: reference 1; cited from earlier work
[7] = test system: p21; experiment: Quantitative real-time PCR of p21 mRNA; type: cell-based; conditions: A549, versus untreated control
Method: Real-Time PCR—A549 cells were plated in 10 cm dishes at 1.5×10^6, allowed to adhere, and treated for 24-48 hours with cisplatin or SMIs (5 μM). Referring now to FIG. 16B, Western blot of cells treated sequentially. For sequential treatment, A549 cells were exposed to cisplatin for 24 hours followed by the addition of SMIs for another 24 hours as above. Referring now to FIG. 16A, A549 cells were treated sequentially or concurrently with cisplatin (5 μM) and MCI13E or MCI13F for 24 total hours. Lysates were probed for p53-ser15-phosphorylation or phosphorylated-ATM. GAPDH was probed as a loading control. Concurrently treated cells were incubated simultaneously with both cisplatin and MCIs for 24 hours. RNA was extracted using RNeasy minikit (Qiagen, Germantown, Md.) per manufacturer's protocol. cDNA was generated using Applied Biosystem's (ABI) High Capacity RNA-to-cDNA kit. Validated gene primer/probe sets, also from ABI, were used for Quantitative Real Time-PCR. ABI's ΔΔCT Relative Quantification methodology was used for the analyses (applied Biosystems). Data were normalized to the housekeeping gene GAPDH and calibrated to the mock treated samples. Results presented are the average of two separate cell treatments/RNA isolations with duplicate Taqman Assays per RNA sample set.
Referring now to FIG. 15A. Plot of Quantitative Real Time PCR analyses of mRNA expression changes of A549 cells treated with MCI13E, MCI13F and Cisplatin. Data represents the average of four separate Q-RT PCR Assays. Genes of interest were normalized to GAPDH transcript levels, and are presented as fold changes relative to untreated cell samples. Cisplatin treatment increases transcription of DDB2 (A). Referring now to FIG. 15B. Bar graph of P21/GAPDH measured in cells subjected to different treatment schemes. Referring now to FIG. 15C. Bar graph of XPC/GAPDH measured under different treatment regimes XPC Concurrent MCI/Cisplatin treated cells show a decrease in gene transcription when compared to cells treated with Cisplatin alone (24 hour).

T1 sequence (P0AGE0 2-178): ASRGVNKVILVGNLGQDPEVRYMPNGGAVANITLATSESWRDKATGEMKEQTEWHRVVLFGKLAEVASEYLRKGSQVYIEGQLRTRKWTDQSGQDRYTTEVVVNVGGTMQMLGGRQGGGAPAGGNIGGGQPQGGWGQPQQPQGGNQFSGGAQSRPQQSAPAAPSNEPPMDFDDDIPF

Compound: O=C1OC(=O)[C@H]2C3C=CC(CC3)[C@@H]12 [CheSS19]
- Effect on EcSSB ssDNA binding [1]: unaffected
- Inhibition of DBD-A/B DNA binding [2]: potent inhibitory activity; also recorded: inhibits the DNA binding activity of the DBD-A/B construct with similar potency to the heterotrimeric RPA preparation
- Reversibility of full-length RPA inhibition (earlier report) [3]: irreversible
- Reversibility of DBD-A/B inhibition [4]: inhibiting DBD-A/B in an irreversible manner
- Inhibition of full-length RPA DNA binding [5]: potent inhibitory activity

Compound: CCOc1ccc2cc(C3CC(c4ccc(Br)cc4)=NN3C(=O)CCC(=O)O)c(Cl)nc2c1 (stereo not shown) [TDRL-505]
- Mode of cell death (earlier report) [6]: cytotoxic via a non-apoptotic pathway

Compound: N.N.[Cl][Pt][Cl] [cisplatin, cis-diamminedichloroplatinum (II)]
- p21 mRNA expression, single agent [7]: dramatic increase in p21 mRNA expression
